Patent publication US20210221848A1, “POLYMYXIN DERIVATIVES AND THEIR USE IN COMBINATION THERAPY TOGETHER WITH DIFFERENT ANTIBIOTICS” (priority 2014, published 2021)
Read-outs that look alike come from different tables or passages of the source.

Key:
[1] = tested on: A. baumanii strains with elevated MICs to Polymyxin B; test: MIC against strains with elevated MICs to Polymyxin B; type: cell-based, Acinetobacter baumannii; settings: Table 6D; for MIC A. baumannii 053: strain 053, elevated MIC to Polymyxin B; for MIC A. baumannii 056: strain 056, elevated MIC to Polymyxin B; for MIC A. baumannii 068: strain 068, elevated MIC to Polymyxin B; for MIC A. baumannii 070: strain 070, elevated MIC to Polymyxin B
Experimental: (§1) The inoculum was prepared by making a direct suspension of isolated colonies (selected from an 18-24 hour Mueller-Hinton agar plate) adjusted to the 0.5 McFarland standard. […] The assays were performed in duplicate. […] In cases where the duplicate values varied by less than 2-fold, the lower of the two values is reported. If a variation of greater than 2-fold was observed, the assay was considered non-valid. Several of the compounds were subjected to multiple tests, and where this is the case, the MIC reflects the modal value obtained.
(§2) The Further Synthesis Examples were tested against a range of Gram negative bacteria, and tested for HK-2 cell toxicity. All the worked examples, including the Synthesis and Further Synthesis Examples, were also tested against a range of Gram negative bacteria that are resistant to Polymyxin B (i.e. those strains where Polymyxin B has an elevated MIC value).

[2] = tested on: K. pneumoniae strains with elevated MICs to Polymyxin B; test: MIC against strains with elevated MICs to Polymyxin B; type: cell-based, Klebsiella pneumoniae; settings: Table 6D; for MIC K. pneumoniae 062: strain 062, elevated MIC to Polymyxin B; for MIC K. pneumoniae 063: strain 063, elevated MIC to Polymyxin B; for MIC K. pneumoniae 064: strain 064, elevated MIC to Polymyxin B; for MIC K. pneumoniae 655: strain 655, elevated MIC to Polymyxin B
Experimental: as §1, §2

[3] = tested on: E. coli strains with elevated MICs to Polymyxin B; test: as above; type: cell-based, Escherichia coli; settings: Table 6D; for MIC E. coli 058: strain 058, elevated MIC to Polymyxin B; for MIC E. coli 059: strain 059, elevated MIC to Polymyxin B; for MIC E. coli 060: strain 060, elevated MIC to Polymyxin B; for MIC E. coli 061: strain 061, elevated MIC to Polymyxin B
Experimental: as §1, §2

[4] = tested on: P. aeruginosa strains with elevated MICs to Polymyxin B; test: as above; type: cell-based, Pseudomonas aeruginosa; settings: Table 6D; for MIC P. aeruginosa 065: strain 065, elevated MIC to Polymyxin B; for MIC P. aeruginosa 066: strain 066, elevated MIC to Polymyxin B; for MIC P. aeruginosa 067: strain 067, elevated MIC to Polymyxin B
Experimental: as §1, §2

[5] = absence of a second agent, Table 6B

Substance	MIC A. baumannii 053 [1]	MIC A. baumannii 056 [1]	MIC A. baumannii 068 [1]	MIC A. baumannii 070 [1]	MIC, E. coli ATCC 25922 (E. coli; sole activity, Table 6C)	MIC, P. aeruginosa ATCC 27853 (P. aeruginosa; sole activity, Table 6C)	MIC, P. aeruginosa CCUG 59347 (P. aeruginosa; sole activity, Table 6C)	MIC K. pneumoniae 062 [2]	MIC K. pneumoniae 063 [2]	MIC K. pneumoniae 064 [2]	MIC K. pneumoniae 655 [2]	MIC E. coli 058 [3]	MIC E. coli 059 [3]	MIC E. coli 060 [3]	MIC E. coli 061 [3]	MIC P. aeruginosa 065 [4]	MIC P. aeruginosa 066 [4]	MIC P. aeruginosa 067 [4]	MIC, K. pneumoniae ATCC 4352 (K. pneumoniae; sole activity, Table 6C)	MIC, A. baumannii ATCC BAA-747 (A. baumannii; sole activity, Table 6C)	other results
(S)-4-amino-2- (((S)-6- methyloctyl)amino) butanoyl polymyxin B nonapeptide [Example D90]	32 micrograms/mL	8 micrograms/mL	2 micrograms/mL	2 micrograms/mL	0.25 micrograms/mL	0.5 micrograms/mL	0.25 micrograms/mL	16 micrograms/mL	32 micrograms/mL	4 micrograms/mL	16 micrograms/mL	2 micrograms/mL	2 micrograms/mL	2 micrograms/mL	8 micrograms/mL	0.25 micrograms/mL	8 micrograms/mL	32 micrograms/mL	0.25 micrograms/mL	0.25 micrograms/mL	MIC, A. baumannii NCTC 13424 (A. baumannii; sole activity, Table 6C): 0.25 micrograms/mL
(trans-5-(isobutyl- piperidine)-3- carbonyl L-Thr-L- Dap-polymyxin E heptapeptide [Example D77]	64 micrograms/mL		4 micrograms/mL	4 micrograms/mL	0.06 micrograms/mL	0.5 micrograms/mL	1 micrograms/mL	32 micrograms/mL	16 micrograms/mL	4 micrograms/mL	16 micrograms/mL	2 micrograms/mL	4 micrograms/mL	1 micrograms/mL	4 micrograms/mL	4 micrograms/mL	2 micrograms/mL	128 micrograms/mL	0.125 micrograms/mL	0.06 micrograms/mL	MIC, E. coli NCTC 13441 (E. coli; sole activity, Table 6C): 0.06 micrograms/mL; MIC, K. pneumoniae ATCC BAA-2146 (K. pneumoniae; sole activity, Table 6C): 0.125 micrograms/mL; MIC, A. baumannii NCTC 13424 (A. baumannii; sole activity, Table 6C): 0.06 micrograms/mL
4-(isobutyl- piperidine)-3- carbonyl L-Thr-L- Dap-polymyxin B heptapeptide [Example D83]	>64 micrograms/mL	32 micrograms/mL	8 micrograms/mL	16 micrograms/mL	0.125 micrograms/mL	0.25 micrograms/mL	0.5 micrograms/mL	32 micrograms/mL	16 micrograms/mL	2 micrograms/mL	16 micrograms/mL	4 micrograms/mL	8 micrograms/mL	2 micrograms/mL	8 micrograms/mL	2 micrograms/mL	2 micrograms/mL	32 micrograms/mL	0.06 micrograms/mL	0.06 micrograms/mL	MIC, E. coli NCTC 13441 (E. coli; sole activity, Table 6C): 0.06 micrograms/mL; MIC, A. baumannii NCTC 13424 (A. baumannii; sole activity, Table 6C): 0.125 micrograms/mL
1-(2- trifluoromethylben- zyl)piperazine- 2-carbonyl L-Thr- L-Dap-polymyxin B heptapeptide [Example D71]	64 micrograms/mL	16 micrograms/mL	4 micrograms/mL	8 micrograms/mL	0.25 micrograms/mL	0.5 micrograms/mL	1 micrograms/mL	32 micrograms/mL	16 micrograms/mL	4 micrograms/mL	32 micrograms/mL	1 micrograms/mL	8 micrograms/mL	4 micrograms/mL	8 micrograms/mL	0.5 micrograms/mL	1 micrograms/mL	16 micrograms/mL	0.25 micrograms/mL	0.5 micrograms/mL	MIC, E. coli NCTC 13441 (E. coli; sole activity, Table 6C): 0.25 micrograms/mL; MIC, K. pneumoniae ATCC BAA-2146 (K. pneumoniae; sole activity, Table 6C): 0.5 micrograms/mL; MIC, A. baumannii NCTC 13424 (A. baumannii; sole activity, Table 6C): 0.25 micrograms/mL
(cis-5-octylpiperidine)- 3-carbonyl polymyxin B nonapeptide [Example D20]	>64 micrograms/mL	>64 micrograms/mL	32 micrograms/mL	64 micrograms/mL				>64 micrograms/mL	>64 micrograms/mL	>64 micrograms/mL	>64 micrograms/mL		4 micrograms/mL	16 micrograms/mL	32 micrograms/mL		64 micrograms/mL	>64 micrograms/mL			MIC, E. coli ATCC 25922 (E. coli; [5]): 4 micrograms/mL; MIC, E. coli NCTC 13441 (E. coli; [5]): 4 micrograms/mL; MIC, P. aeruginosa ATCC 27853 (P. aeruginosa; [5]): 0.5 micrograms/mL; MIC, P. aeruginosa CCUG 59347 (P. aeruginosa; [5]): 1 micrograms/mL; MIC, K. pneumoniae ATCC 4352 (K. pneumoniae; [5]): 8 micrograms/mL; MIC, K. pneumoniae ATCC BAA-2146 (K. pneumoniae; [5]): >8 micrograms/mL; MIC, A. baumannii ATCC BAA-747 (A. baumannii; [5]): >8 micrograms/mL; MIC, A. baumannii NCTC 13424 (A. baumannii; [5]): >8 micrograms/mL
1-(2- hydroxybenzyl)pi- perazine-2- carbonyl Polymyxin B nonapeptide [Example D67]	>256 micrograms/mL		64 micrograms/mL		0.06 micrograms/mL	0.25 micrograms/mL	0.5 micrograms/mL		128 micrograms/mL			8 micrograms/mL	64 micrograms/mL	16 micrograms/mL		4 micrograms/mL			0.03 micrograms/mL	0.5 micrograms/mL	MIC, E. coli NCTC 13441 (E. coli; sole activity, Table 6C): 0.125 micrograms/mL; MIC, K. pneumoniae ATCC BAA-2146 (K. pneumoniae; sole activity, Table 6C): 0.06 micrograms/mL; MIC, A. baumannii NCTC 13424 (A. baumannii; sole activity, Table 6C): 0.25 micrograms/mL
trans-4- octylpyrrolidine-3- carbonyl polymyxin B nonapeptide [Example D30]	16 micrograms/mL	8 micrograms/mL	2 micrograms/mL	1 micrograms/mL					4 micrograms/mL	1 micrograms/mL	2 micrograms/mL	1 micrograms/mL	1 micrograms/mL	1 micrograms/mL	4 micrograms/mL	0.5 micrograms/mL	0.5 micrograms/mL	16 micrograms/mL			MIC, E. coli ATCC 25922 (E. coli; [5]): 2 micrograms/mL; MIC, E. coli NCTC 13441 (E. coli; [5]): 2 micrograms/mL; MIC, P. aeruginosa ATCC 27853 (P. aeruginosa; [5]): 1 micrograms/mL; MIC, P. aeruginosa CCUG 59347 (P. aeruginosa; [5]): 1 micrograms/mL; MIC, K. pneumoniae ATCC 4352 (K. pneumoniae; [5]): 1 micrograms/mL; MIC, A. baumannii ATCC BAA-747 (A. baumannii; [5]): 1 micrograms/mL; MIC, A. baumannii NCTC 13424 (A. baumannii; [5]): 2 micrograms/mL
